In patent US6277845A, “Hydrazono-benzazulene derivatives, pharmaceutical compositions and intermediates” (Aventis Pharma S.A., priority 1997, dated 2001):
Where a name gives a salt, the structure may show the parent alone.

Columns and labels:
human αvβ3 receptor = human αvβ3 receptor (Homo sapiens, UniProt P05106+P06756); test: Bond displacement / binding competition test: Vitronectin/Vitronectin Receptor (αvβ3), plate assay; settings: human vitronectin coated plates, 3 hours at ambient temperature, read-out: Binding competition test Vn/VR (αvβ3) IC50
Description: Pharmacological Study of the Products of the Invention 1--Study by the Products of the Invention of the Bond Displacement: Vitronectin/Vitronectin Receptor (αvβ3) 96-well MaxiSorp plates are coated overnight at 4° C., with 100 μl of human Vitronectin (cf Yatohgo et al. Cell., Structure and fraction 13: 281-292 (1988)) at 2 μg/ml, (Dilution in coating buffer).
The next day, the wells are emptied and the ligands (Vitronectin) are then fixed (see fixation buffer) for 1 hour at ambient temperature under gentle agitation.
The wells are washed six times (see washing buffer), then the following are added per well and in this order:
40 μl of incubation buffer, 10 μl of the dilution of the product to be tested, (the products are diluted in a 50/50 mixture of DMSO-H2 O) 50 μl of human αvβ 3 receptor (cf Pytela et al. Methods Enzymol (1987) 144:475) (dilution in incubation buffer, adapted according to the batch of receptor and according to the ligand).
The ligand, the human αvβ3 receptor and the products to be studied are incubated for 3 hours at ambient temperature under gentle agitation.
The wells are again washed six times, then incubated for 2 hours at ambient temperature under gentle agitation, in the presence of 100 μl of 4B12-HRP antibody, anti-receptor coupled to a peroxidase (the 4B12-HRP antibody is diluted in incubation buffer. The dilution is adapted according to the batch of receptor).
The wells are then washed six times before measurement of ligand-receptor bond is carried out using a peroxidase developer kit (TMB Microwell Peroxidase Substrate System Kirkegaard: Ref. cat. 50-76-00).
This kit contains a flask A of substrate (3,3', 5,5'-tetramethylbenzidine at 0.4 g/l) and a flask B (H2 O2 at 0.02% in Citrate/Citric acid buffer). Extemporaneously, one volume of A is mixed with one volume of B, then the reaction mixture is distributed at the rate of 100 µl/well. The enzymatic reaction develops in 12' for Vitronectin/αvβ3, then its development is stopped by the addition of 100 μl of 1M phosphoric acid.
The optical density is measured at 450 nm. […]
coating buffer: 0.05 M Carbonate, NaOH pH 9.6 fixation buffer: PBS containing 0.5% of BSA (pH 7.4) washing buffer: PBS containing 0.05% of Tween 20 (pH 7.4)
The following curve is plotted: the percentage of bond of human vitronectin as a function of the logarithm of the concentration of each product tested.
For each product the IC50 is determined according to the following formula:
BO=Maximum bond in the absence of any product
Bmin=Minimum bond in the presence of the highest concentration of product.

osteoclasts = settings: cited from earlier work
bone resorption [1] = settings: in vivo in the rat, Fisher et al.; cited from earlier work
bone resorption [2] = settings: Sato et al.; cited from earlier work

IC50 (human αvβ3 receptor) | Compound | inhibition of the adhesion of the osteoclasts to bone (osteoclasts) | inhibition of bone resorption in vivo (bone resorption [1]) | inhibition of bone resorption in tissues cultured in vitro (bone resorption [2])
40 nM | COc1c(SCCC(NC(=O)OCc2ccccc2)C(=O)O)cc2c(c1OC)C1=C(CCC1)C(=NNC1=NCCN1)CC2 (racemic) [Example 1, S-[4-[(4,5-dihydro-1H-imidazol-2-yl)hydrazono]-9,10-dimethoxy-1,2,3,4,5,6-hexahydro-8-benz[e]azulenyl]-N-[(phenylmethoxy)carbonyl]-DL-homocysteine] | – | – | –
30 nM | O=C(NC(CCSc1ccc2c(c1)CCC(=NN=C1NCCN1)C1=C2CCC1)C(=O)O)OCc1ccccc1 (racemic) [Example 4, S-[4-[(2-imidazolidinylidene)hydrazono]-1,2,3,4,5,6-hexahydro-8-benz[e]azulenyl]-N-[(phenylmethoxy)carbonyl]-DL-homocysteine] | – | – | –
33 nM | O=C(NC(CCS(=O)(=O)c1ccc2c(c1)CCC(=NNC1=NCCN1)C1=C2CCC1)C(=O)O)OCc1ccccc1 (stereo not shown) [Example 5, hydrochloride of 4-[[4-[(2-imidazoli-dinylidene)hydrazono]-1,2,3,4,5,6-hexahydro-8-benz[e]azulenyl]sulphonyl]-2-[[(phenylmethoxy)carbonyl]amino]-butanoic acid] | – | – | –
230 nM | O=C(NC(CC[S+]([O-])c1ccc2c(c1)CCC(=NN=C1NCCN1)C1=C2CCC1)C(=O)O)OCc1ccccc1 (stereo not shown) [Example 6, 4-[[4-[(2-imidazolidinylidene)hydrazono]-1,2,3,4,5,6-hexahydro-8-benz[e]azulenyl]sulphinyl]-2-[[(phenylmethoxy)carbonyl]amino]-butanoic acid] | – | – | –
– | Echistatin | inhibitor of the adhesion of the osteoclasts to bone | powerful inhibitor of bone resorption | powerful inhibitor of bone resorption
